Assay results taken from the OPERA property sets (Mansouri et al. 2018).

details: not given

Point of comparison: `CCCC(C)c1ccccc1` (stereo not drawn), boiling point 199 °C. Against it:
- CC=C(Cl)C=O — lower, 148 °C
- CCOC(=O)CCCCCCCC(=O)OCC — higher, 292 °C
- CCCC=CCCCCC — lower, 171 °C
- O=C(Cl)c1ccccc1Br — higher, 243 °C
- C=CCc1ccccc1C — lower, 182 °C
- C/C=C/CCCO — lower, 159 °C
- C1CCSC1 — lower, 121 °C
- CCCCC(CC)COCC(CC)CCCC (stereo not drawn) — higher, 269 °C
- CCCCCCCCCCCCCCCCCC(=O)O — higher, 383 °C
- Cc1ccc[nH]1 — lower, 147 °C
- C(#Cc1ccccc1)c1ccccc1 — higher, 300 °C
- COC1CCC(OC)O1 (stereo not drawn) — lower, 146 °C
- CN(C)CCO — lower, 134 °C
- COc1ccccc1Cl — lower, 198 °C
- CC(C)C1CCC(C)(O)CC1 (stereo not drawn) — higher, 208 °C
- FC(F)(F)C(F)(F)C(F)(F)C(F)(F)C(F)(F)C(F)(F)C(F)(F)C(F)(F)F — lower, 106 °C
- Cc1ccc(C)c(C)n1 — lower, 172 °C
- O=[N+]([O-])c1cccc(C(F)(F)F)c1 — higher, 203 °C
- OCC1CCC(CO)O1 (stereo not drawn) — higher, 265 °C
- Nc1ccc(N)c(N)c1 — higher, 340 °C
- CCCCC(C)(C)C(C)C — lower, 160 °C
- CCC(C)c1ccccc1 (stereo not drawn) — lower, 174 °C
- CC(=O)C(F)(F)F — lower, 22 °C
- Cc1cc(C(C)(C)C)cc(C(C)(C)C)c1O — higher, 269 °C
- CCCCc1ccncc1 — higher, 209 °C
- C=C(CC)C(C)C — lower, 89 °C
- CCCCCC(N)=O — higher, 255 °C
- FC(F)(Br)C(F)(F)C(F)(F)C(F)(F)C(F)(F)C(F)(F)C(F)(F)Br — lower, 159 °C
- CCCCCCCCCCCC — higher, 216 °C
- CCOc1ccccc1 — lower, 170 °C
- O=[N+]([O-])c1ccccc1O — higher, 216 °C
- ClC#CCl — lower, 33 °C
- CCCCNC(C)=O — higher, 229 °C
- CC1=CCCC(=O)C1 — higher, 201 °C
- CCCCCCCCCC1CCCCC1 — higher, 282 °C
- C#CCNC — lower, 83 °C
- C=CCS — lower, 65 °C
- CC=CC(C)C — lower, 58.8 °C
- CC(C)C1CC1 — lower, 58.3 °C
- OCc1cccs1 — higher, 207 °C
- COC(=O)c1ccccc1[N+](=O)[O-] — higher, 275 °C
- Cc1ccsc1C — lower, 142 °C
- CC1=CCC(C(C)C)=CC1 — lower, 183 °C
- CC#CC=CC — lower, 88.5 °C
- c1ccc([Se]c2ccccc2)cc1 — higher, 302 °C
- CCOC(CN)OCC — lower, 163 °C
- Cc1c(Cl)cccc1Cl — lower, 198 °C
- CC1(C)CON(Cc2ccccc2Cl)C1=O — higher, 275 °C
- CC(C)COC=O — lower, 98.2 °C
- CCCCCCCCCCS — higher, 241 °C
- CCN(C#N)CC — lower, 188 °C

Point of comparison: `Nc1nc2ccccc2[nH]1`, melting point 230 °C. Against it:
- N#CCN — lower, 101 °C
- CCOC(=O)CCCCCCCC(=O)OCC — lower, -18.5 °C
- O=C(Cl)c1ccccc1Br — lower, 11 °C
- Cc1cc(C)c(NC(=O)CN(CC(=O)O)CC(=O)O)c(C)c1Br — lower, 199 °C
- CCC(C(=O)O)C(=O)O — lower, 114 °C
- CCC1(C(C)C)C(=O)NC(=O)NC1=O — lower, 203 °C
- C1CCSC1 — lower, -96.1 °C
- O=[N+]([O-])c1cccc(SSc2cccc([N+](=O)[O-])c2)c1 — lower, 84 °C
- CCCCCCCCCCCCCCCCCC(=O)O — lower, 68.8 °C
- Cc1ccc[nH]1 — lower, -35.6 °C
- C(#Cc1ccccc1)c1ccccc1 — lower, 62.5 °C
- CN(C)CCO — lower, -59 °C
- CC(Oc1cc(Cl)c(Cl)cc1Cl)C(=O)O (stereo not drawn) — lower, 182 °C
- COc1ccccc1Cl — lower, -26.8 °C
- CN(C(O)=NC(C)(C)c1ccccc1)c1ccccc1 — lower, 72 °C
- Cc1ccc(N=C=Nc2ccc(C)cc2)cc1 — lower, 58.5 °C
- CC1(C)S[C@@H]2[C@H](NC(=O)C3(N)CCCCC3)C(=O)N2[C@H]1C(=O)O — lower, 182 °C
- O=C(OCCOC(=O)c1ccccc1)c1ccccc1 — lower, 73.5 °C
- FC(F)(F)C(F)(F)C(F)(F)C(F)(F)C(F)(F)C(F)(F)C(F)(F)C(F)(F)F — lower, -42 °C
- C[Si]1(C)O[Si](C)(C)O[Si](C)(C)O[Si](C)(C)O[Si](C)(C)O[Si](C)(C)O[Si](C)(C)O1 — lower, -26 °C
- CC(C)N1C(=O)N(c2ccccc2)CSC1=NC(C)(C)C — lower, 105 °C
- COc1ccc(/C=N/NC(=O)c2ccncc2)cc1OC — lower, 189 °C
- O=C1c2ccccc2C(=O)c2c(Cl)cccc21 — lower, 163 °C
- O=[N+]([O-])c1cccc(C(F)(F)F)c1 — lower, -2.4 °C
- CCC(C)c1cc([N+](=O)[O-])cc([N+](=O)[O-])c1OC(=O)C=C(C)C (stereo not drawn) — lower, 70 °C
- Oc1ccc2c(c1)[C@@]13CCCC[C@H]1[C@@H](C2)N(CCc1ccccc1)CC3 — higher, 244 °C
- Cc1ccccc1B(O)O — lower, 166 °C
- O=C(Oc1ccc2ccccc2c1)c1ccccc1O — lower, 95.5 °C
- Nc1ccc(N)c(N)c1 — lower, 97.3 °C
- CCC(C)c1ccccc1 (stereo not drawn) — lower, -82.7 °C
- CC[C@H]1OC(=O)[C@H](C)[C@@H](O[C@H]2C[C@@](C)(OC)[C@@H](O)[C@H](C)O2)[C@H](C)[C@@H](O[C@@H]2O[C@H](C)C[C@H](N(C)C)[C@H]2O)[C@](C)(O)C[C@@H](C)C(=O)[C@H](C)[C@@H](O)[C@]1(C)O — lower, 191 °C
- CC[C@H]1OC(=O)[C@H](C)[C@@H](O[C@@H]2O[C@H](C)C[C@H](N(C)C)[C@H]2O)[C@@H](C)C[C@@H](C)C(=O)C=C[C@]1(C)O — lower, 196 °C
- Cc1cc(C(C)(C)C)cc(C(C)(C)C)c1O — lower, 51 °C
- NC(Cc1cc(Br)c(O)c(Br)c1)C(=O)O (stereo in doubt) — higher, 245 °C
- CCCCCC(N)=O — lower, 101 °C
- O=C1NC(=O)c2c1cccc2[N+](=O)[O-] — lower, 214 °C
- CCCCCCCCCCCC — lower, -9.6 °C
- Oc1ccc(Cc2ccc(O)cc2)cc1 — lower, 162 °C
- CCN(CC)C(=O)n1cnc(S(=O)(=O)c2c(C)cc(C)cc2C)n1 — lower, 115 °C
- CCOc1ccccc1 — lower, -29.5 °C
- O=C1COc2ccccc21 — lower, 102 °C
- CC(=O)N(CC(O)CO)c1c(I)c(C(=O)NCC(O)CO)c(I)c(C(=O)NCC(O)CO)c1I (stereo not drawn) — lower, 177 °C
- CCCCCCCCCC(N)=O — lower, 108 °C
- O=[N+]([O-])c1ccccc1O — lower, 44.8 °C
- ClC#CCl — lower, -66 °C
- CC[C@@H]1CN2CCc3c([nH]c4cccc(OC)c34)[C@H]2C[C@@H]1/C(=C\OC)C(=O)OC — lower, 104 °C
- c1ccc2c(c1)OCCOCCOCCOc1ccccc1OCCOCCOCCO2 — lower, 104 °C
- CC1=CCCC(=O)C1 — lower, -21 °C
- CCCCCCCCCC1CCCCC1 — lower, -10 °C
- CCCCCCCCCCCCCCCCCCC(C)c1ccccc1 (stereo not drawn) — lower, 29 °C
- CC=CC(C)C — lower, -130 °C
- c1ccc(N=Nc2ccc(Nc3ccccc3)cc2)cc1 — lower, 90 °C
- CC(C)C1CC1 — lower, -113 °C
- Nc1nc(N)c2nc(-c3ccccc3)c(N)nc2n1 — higher, 316 °C
- C[C@@H](N)C(=O)O — higher, 292 °C
- COC(=O)c1ccccc1[N+](=O)[O-] — lower, -13 °C
- Cc1ccsc1C — lower, -49 °C
- CC1=CCC(C(C)C)=CC1 — lower, -10 °C
- OCCCCCCCCCCO — lower, 74 °C
- CCOC(C(=O)c1ccccc1)c1ccccc1 (stereo not drawn) — lower, 62 °C
- c1ccc([Se]c2ccccc2)cc1 — lower, 2.5 °C
- NS(=O)(=O)c1ccc(CCCCO)cc1 — lower, 78.5 °C
- Cc1onc(-c2ccccc2)c1C(=O)N[C@@H]1C(=O)N2[C@@H]1SC(C)(C)[C@@H]2C(=O)O — lower, 188 °C
- O=C(O)CCCCCCCC(=O)O — lower, 106 °C
- O=C(Nc1ccccc1)c1ccccc1O — lower, 136 °C
- CC(C)C[C@@H](NC(=O)[C@@H](O)[C@H](N)Cc1ccccc1)C(=O)O — higher, 234 °C
- Nc1ccc(Cl)c(C(=O)O)c1 — lower, 188 °C
- CCOC(CN)OCC — lower, -78 °C
- Cc1c(Cl)cccc1Cl — lower, 25.8 °C
- CC1(C)CON(Cc2ccccc2Cl)C1=O — lower, 25 °C
- CC(C)COC=O — lower, -95.8 °C
- Cn1c(=O)c2c(ncn2CCOC(=O)c2cccnc2)n(C)c1=O — lower, 152 °C
- CCCCCCCCCCS — lower, -26 °C
- CCN(C#N)CC — lower, -80.6 °C

Point of comparison: `CC1(C)CON(Cc2ccccc2Cl)C1=O`, log10 vapour pressure (mmHg) -3.84. Against it:
- C1CCSC1 — higher, 1.26
- CCCCCCCCCCCCCCCCCC(=O)O — lower, -6.14
- C(#Cc1ccccc1)c1ccccc1 — higher, -2.64
- CN(C)CCO — higher, 0.502
- COc1ccccc1Cl — higher, -0.623
- C[Si]1(C)O[Si](C)(C)O[Si](C)(C)O[Si](C)(C)O[Si](C)(C)O[Si](C)(C)O[Si](C)(C)O1 — higher, -1.95
- CC(C)N1C(=O)N(c2ccccc2)CSC1=NC(C)(C)C — lower, -5.03
- O=[N+]([O-])c1cccc(C(F)(F)F)c1 — higher, -0.587
- CCC(C)c1cc([N+](=O)[O-])cc([N+](=O)[O-])c1OC(=O)C=C(C)C (stereo not drawn) — lower, -6.5
- CCC(C)c1ccccc1 (stereo not drawn) — higher, 0.243
- CCCCCCCCCCCC — higher, -0.87
- CCN(CC)C(=O)n1cnc(S(=O)(=O)c2c(C)cc(C)cc2C)n1 — lower, -10.6
- CCOc1ccccc1 — higher, 0.185
- O=[N+]([O-])c1ccccc1O — higher, -0.947
- CCCCC(CC)CN1C(=O)C2C3C=CC(C3)C2C1=O (stereo not drawn) — lower, -4.74
- CCCCCCCCCC1CCCCC1 — higher, -2.61
- C=CCS — higher, 2.72
- CC1=CCC(C(C)C)=CC1 — higher, 0.0362
- O=C(O)CCCCCCCC(=O)O — lower, -7.97
- CC(C)COC=O — higher, 1.6
- CCCCCCCCCCS — higher, -1.44

For `CCCCCCCCCCCCCCCCCC(=O)O`, the ready biodegradability was “readily biodegradable”.
In the case of `CN(C)CCO`, the ready biodegradability was “readily biodegradable”.
For `CC(Oc1cc(Cl)c(Cl)cc1Cl)C(=O)O` (stereo not drawn), the ready biodegradability was “not readily biodegradable”.
In the case of `O=C1c2ccccc2C(=O)c2c(Cl)cccc21`, the ready biodegradability was “not readily biodegradable”.
In the case of `COc1c(N)cccc1[N+](=O)[O-]`, the ready biodegradability was “not readily biodegradable”.
For `CCCCCCCCCCCC`, the ready biodegradability was “readily biodegradable”.
For `Oc1ccc(Cc2ccc(O)cc2)cc1`, the ready biodegradability was “not readily biodegradable”.
With `CCOc1ccccc1` the ready biodegradability was “readily biodegradable”.
In the case of `O=[N+]([O-])c1ccccc1O`, the ready biodegradability was “not readily biodegradable”.
With `CC1=CCC(C(C)C)=CC1` the ready biodegradability was “readily biodegradable”.
In the case of `Cc1c(Cl)cccc1Cl`, the ready biodegradability was “not readily biodegradable”.

Point of comparison: `CC(Oc1cc(Cl)c(Cl)cc1Cl)C(=O)O` (stereo not drawn), log10 Koc (L/kg) 1.75. Against it:
- CC1(C)CON(Cc2ccccc2Cl)C1=O — higher, 2.44

With `O=S1OC[C@@H]2[C@H](CO1)[C@]1(Cl)C(Cl)=C(Cl)[C@@]2(Cl)C1(Cl)Cl` (stereo partly drawn) the log10 Koa was 8.64.

Point of comparison: `O=[N+]([O-])c1ccccc1O`, log10 Henry constant (atm·m³/mol) -4.89. Against it:
- CC(=O)C(F)(F)F — lower, -5.11
- CC1=CCC(C(C)C)=CC1 — higher, -1.59

Compound `CCCCCCCCCCCC` has a log10 biodegradation half-life (days) of 1.

same assay, conditions: fish

Point of comparison: `C[Si]1(C)O[Si](C)(C)O[Si](C)(C)O[Si](C)(C)O[Si](C)(C)O[Si](C)(C)O[Si](C)(C)O1`, log10 biotransformation half-life (days) 1.48. Against it:
- O=C1c2ccccc2C(=O)c2c(Cl)cccc21 — lower, -0.23
- CCCCCCCCCCCC — lower, 0.26

Point of comparison: `CCCCCCCCCCCC`, log10 BCF 2.38. Against it:
- O=C1c2ccccc2C(=O)c2c(Cl)cccc21 — within 0.2 log units, 2.3
- O=[N+]([O-])c1ccccc1O — lower, 1.34
